A short description of test [1]: Fe3+ reducing ability (ferricyanide method, absorbance 700 nm). The settings on record: 30 µg/mL; absorbance at 700 nm. As for the experimental part:
The Fe^3+ reducing ability of Schiff bases (10–15) and hydrazineylidene derivatives (16 and 17) were tested according to our prior studies. For this purpose, various concentrations of compounds (10–17) were transferred into test tubes, and 2.5 mL of phosphate buffer (0.2 M, pH 6.6) and 2.5 mL (1%) of potassium ferricyanide [K3Fe(CN)6] solutions were added. Then, the mixture was vortexed and incubated at 50 °C for 20 min. A portion of trichloroacetic acid (2.5 mL, 10%) was added. Then, 2.5 mL of upper layers of the solutions were mixed with 2.5 mL distilled water and 0.5 mL FeCl3 (0.1%). The absorbance values of the reducing effects of compounds (10–17) and standards were spectrophotometrically recorded at 700 nm.

Test [2] is described as follows: Cu2+ reducing ability (neocuproine method, absorbance 450 nm). As to conditions: 30 µg/mL; absorbance at 450 nm. As for the experimental part: The Cu^2+ reducing ability of Schiff bases (10–15) and hydrazineylidene derivatives (16 and 17) were detected according to a prior study. For this purpose, 0.25 mL of CuCl2 solution (10 mM), 0.25 mL of ethanolic neocuproine solution (7.5 × 10^−3 M), and 250 μL of NH4Ac buffer solution (1.0 M) in different concentrations (10–30 μg/mL) were transferred to test tubes containing Schiff base (10–15) and hydrazineylidene derivative (16 and 17) samples. The total volume was made up to 2 mL with distilled water, and their absorbance values were recorded at 450 nm after 30 min of incubation.

Test [3] in a line: Fe3+-TPTZ complex reducing ability (absorbance 593 nm). The settings on record: 30 µg/mL; absorbance at 593 nm. As for the experimental part:
The Fe^3+-TPTZ complex reducing ability of Schiff bases (10–15) and hydrazineylidene derivatives (16 and 17) was realized according to a previous study. For this, 2.25 mL of TPTZ solution (10 mM in 40 mM HCl) was freshly prepared, then added to 2.5 mL of acetate buffer (0.3 M, pH 3.6) and 2.25 mL of FeCl3 solution (20 mM). Then, different concentrations of Schiff bases (10–15) and hydrazineylidene derivatives (16 and 17) were transferred and incubated at 37 °C for 30 min. Finally, the absorbance values of the reducing power of Schiff bases (10–15) and hydrazineylidene derivatives (16 and 17) and standards were spectrophotometrically measured at 593 nm.

Test [4] in a line: DPPH radical scavenging (Blois method). The settings on record: half maximal scavenging concentration. As for the experimental part: DPPH· and ABTS^•+ scavenging methods are the most widely used spectrophotometric methods to determine the antioxidant capacity of newly synthesized compounds. The DPPH‧ scavenging effect of Schiff bases (10–15) and hydrazineylidene derivatives (16 and 17) was realized according to the Blois method. Briefly, 1 mL of DPPH^• solution (0.1 mM), which was prepared in ethanol and was a violet/purple color […], was added to the Schiff base (10–15) and hydrazineylidene derivative (16 and 17) samples at different concentrations (10–30 μg/mL). Then, they were incubated at room temperature for 30 min and their absorbance values were recorded at 517 nm.

The nature of test [5]: ABTS radical cation scavenging. As for the experimental part:
The ABTS radical cation scavenging assay was used as a way to calculate antioxidant capacity based on this radical scavenging ability. Firstly, an aqueous solution of ABTS (7.0 mM) was oxidized by oxidants such as K2S2O8 (2.5 mM) for the production of its radical cation (ABTS^•+). […] Then, 1 mL of ABTS^•+ solution was added to 3 mL Schiff base (10–15) and hydrazineylidene derivative (16 and 17) solutions at different concentrations (10–30 μg/mL).

Test [6] has as its target hCA II (Homo sapiens, UniProt P00918). The test is described as follows: hCA II inhibition, esterase assay (Verpoorte). Format: biochemical.
Description: (§2) Both isoforms’ activity was spectrophotometrically determined according to the Verpoorte assay [47]. […] All experiments of the CA inhibition assay were repeated three times and the results are given as the arithmetic mean of these repetitions.
In test [7] the target is AChE (Homo sapiens, UniProt P22303). The test is described as follows: biochemical. As for the experimental part:
(§1) Acetylthiocholine iodide/butyrylthiocholine iodide (AChI)/BChI) and 5,5′-dithiobis(2-nitro-benzoic acid) (DTNB) were used as the substrate pattern for both cholinergic reactions. […] Then, the samples were incubated at 25 °C for 15 min, and 50 μL of DTNB solution (0.5 mM,) was transferred.

The target in test [8] is BChE (Homo sapiens, UniProt P06276). Briefly: biochemical. As for the experimental part: as §1
Test [9] concerns the target T1, hCA I (Homo sapiens, UniProt P00915).
Description: as §2
In test [10] the target is T1, hCA I. The test is described as follows: biochemical.
Description: as §2

The structures appear in SMILES notation. Values joined by “and” are separate entries in the source; they are usually repeats but may differ in a detail not shown here. Equal values may be shown once. Read-outs that look alike come from different tables or passages of the source.

Data on eight molecules can be found in paper PMC10051454, “Synthesis of Schiff Bases Containing Phenol Rings and Investigation of Their Antioxidant Capacity, Anticholinesterase, Butyrylcholinesterase, and Carbonic Anhydrase Inhibition Properties” (Pharmaceutics, 2023).

T1 sequence (P00915 whole entry): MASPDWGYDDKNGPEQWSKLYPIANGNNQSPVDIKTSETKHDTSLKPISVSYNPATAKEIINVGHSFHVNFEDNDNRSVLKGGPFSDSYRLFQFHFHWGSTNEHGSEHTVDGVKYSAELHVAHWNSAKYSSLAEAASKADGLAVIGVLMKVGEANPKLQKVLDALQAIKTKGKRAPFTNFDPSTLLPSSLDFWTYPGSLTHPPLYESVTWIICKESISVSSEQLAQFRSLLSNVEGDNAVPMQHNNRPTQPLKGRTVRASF
Sequence of BChE (P06276 29-602): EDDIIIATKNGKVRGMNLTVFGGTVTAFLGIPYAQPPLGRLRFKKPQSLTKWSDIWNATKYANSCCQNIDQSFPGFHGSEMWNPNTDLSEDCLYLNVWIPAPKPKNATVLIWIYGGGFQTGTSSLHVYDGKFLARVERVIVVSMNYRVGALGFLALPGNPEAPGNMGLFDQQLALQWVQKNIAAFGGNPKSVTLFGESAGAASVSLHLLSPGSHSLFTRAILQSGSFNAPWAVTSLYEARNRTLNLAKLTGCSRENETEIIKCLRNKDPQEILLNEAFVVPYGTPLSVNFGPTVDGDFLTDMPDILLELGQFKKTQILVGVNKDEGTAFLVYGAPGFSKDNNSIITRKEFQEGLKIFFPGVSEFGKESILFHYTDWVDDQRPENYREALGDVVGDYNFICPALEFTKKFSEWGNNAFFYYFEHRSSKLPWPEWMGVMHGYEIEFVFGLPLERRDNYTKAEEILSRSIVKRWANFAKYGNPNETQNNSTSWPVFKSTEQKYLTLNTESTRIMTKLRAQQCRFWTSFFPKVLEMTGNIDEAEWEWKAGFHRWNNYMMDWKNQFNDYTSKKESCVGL
Sequence of AChE (P22303 32-614): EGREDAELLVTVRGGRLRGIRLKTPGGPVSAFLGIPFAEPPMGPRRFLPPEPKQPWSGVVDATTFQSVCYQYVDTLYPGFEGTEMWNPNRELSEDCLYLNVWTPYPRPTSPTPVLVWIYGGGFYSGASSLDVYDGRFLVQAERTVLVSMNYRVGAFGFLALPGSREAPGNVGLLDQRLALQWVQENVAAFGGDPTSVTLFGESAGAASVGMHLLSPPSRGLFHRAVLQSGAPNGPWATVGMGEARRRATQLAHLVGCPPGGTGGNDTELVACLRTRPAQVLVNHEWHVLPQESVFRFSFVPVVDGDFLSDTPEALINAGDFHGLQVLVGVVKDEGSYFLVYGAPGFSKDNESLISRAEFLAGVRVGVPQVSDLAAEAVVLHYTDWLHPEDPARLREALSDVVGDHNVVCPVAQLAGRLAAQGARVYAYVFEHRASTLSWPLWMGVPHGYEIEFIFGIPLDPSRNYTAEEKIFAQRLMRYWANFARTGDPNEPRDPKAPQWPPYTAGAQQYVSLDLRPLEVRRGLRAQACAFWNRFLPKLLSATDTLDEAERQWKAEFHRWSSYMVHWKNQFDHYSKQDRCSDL

Regarding `COc1ccc(/C=N/c2ccc(N)cc2)cc1O` [Compound 14, (E/Z)-5-(((4-Aminophenyl)imino)methyl)-2-methoxyphenol], in [1], the “Fe^3+ Reducing λ700” value stood at 2.741 ± 0.026 absorbance. Further, in test [2], the “Cu^2+ Reducing λ450” value worked out at 1.970 ± 0.018 absorbance. Moreover, in test [3], the “Fe^3+-TPTZ Reducing λ593” value was 2.074 ± 0.017 absorbance. For the same molecule, in [4], the “DPPH^• Scavenging IC50” value was determined as 13.86 µg/mL. The “ABTS^•+ Scavenging IC50” value in test [5] was 5.33 µg/mL. The concentration for half-maximal inhibition (IC50) in [6] (read-out: IC50 hCA II) is 69.3 nM; in test [7] (read-out: IC50 AChE) it was 34.6 nM; in test [8] (read-out: IC50 BChE), 38.5 nM; in test [10] it was 53.3 nM. Moreover, the “Selectivity Index (AChE/BChE)” value in test [7] was determined as 0.900. Also, the “Selectivity Index (hCA I/hCA II)” value in [9] was 0.306. The molecule further registered a Ki in test [10] of 26.1 ± 8.53 nM.
Turning to `NN=C(c1ccccc1)c1ccccc1` [Compound 8, benzophenone hydrazone], the “Cu^2+ Reducing λ450” value in test [2] is 1.005 ± 0.009 absorbance.
As to `COc1ccc(/C=N/c2ccc(N(C)C)cc2)cc1O` [Compound 10, (E)-5-(((4-(Dimethylamino)phenyl)imino)methyl)-2-methoxyphenol], the “Fe^3+ Reducing λ700” value in [1] was determined as 2.827 ± 0.016 absorbance. Also, the “Cu^2+ Reducing λ450” value in [2] came out at 2.176 ± 0.044 absorbance. Moreover, the “Fe^3+-TPTZ Reducing λ593” value in test [3] was determined as 2.076 ± 0.004 absorbance. For the same molecule, the “DPPH^• Scavenging IC50” value in test [4] is 16.902 µg/mL and 16.90 µg/mL. For the same molecule, the “ABTS^•+ Scavenging IC50” value in [5] was 14.437 µg/mL and 14.43 µg/mL. The IC50 was 131 nM in [6] (read-out: IC50 hCA II), 26.7 nM in [7] (read-out: IC50 AChE), 23.9 nM in [8] (read-out: IC50 BChE) and 66 nM in test [10]. The “Selectivity Index (AChE/BChE)” value in test [7] is listed as 1.115. The “Selectivity Index (hCA I/hCA II)” value in test [9] was found to be 0.372.
For the molecule `Cc1c(C)c2c(c(C)c1O)CC[C@@](C)(CCC[C@H](C)CCC[C@H](C)CCCC(C)C)O2` [α-Tocopherol, α-tocopherol, reference compound], the “Fe^3+ Reducing λ700” value in test [1] was 1.446 ± 0.009 absorbance. Also, the “Cu^2+ Reducing λ450” value in test [2] amounted to 1.923 ± 0.032 absorbance. Moreover, the “Fe^3+-TPTZ Reducing λ593” value in test [3] was determined as 1.763 ± 0.026 absorbance. Moreover, in test [4], the “DPPH^• Scavenging IC50” value was 10.043 µg/mL and 10.04 µg/mL. The “ABTS^•+ Scavenging IC50” value in [5] is 9.493 µg/mL and 9.49 µg/mL.
For the molecule `COc1ccc(C=O)cc1O` [Compound 1, Isovanillin], in test [1], the “Fe^3+ Reducing λ700” value is 0.244 ± 0.005 absorbance. Moreover, the “Cu^2+ Reducing λ450” value in test [2] is reported as 1.005 ± 0.009 absorbance. Besides, the “Fe^3+-TPTZ Reducing λ593” value in test [3] amounted to 0.728 ± 0.020 absorbance. For the same molecule, the “DPPH^• Scavenging IC50” value in test [4] was determined as 86.62 µg/mL. The “ABTS^•+ Scavenging IC50” value in [5] turned out to be 12.15 µg/mL. The IC50 in test [6] came out at 173 nM; in test [7], 57.8 nM; in test [8], 53.3 nM; in test [10] it was 139 nM. Besides, the “Selectivity Index (AChE/BChE)” value in test [7] was 1.083. This molecule had a Ki in test [10] of 112 ± 25.8 nM.
Regarding `Cc1cc(C(C)(C)C)c(O)c(C(C)(C)C)c1` [BHT, butylated hydroxytoluene, reference compound], in test [1], the “Fe^3+ Reducing λ700” value was 1.994 ± 0.033 absorbance. Besides, the “Cu^2+ Reducing λ450” value in test [2] is on record as 2.149 ± 0.019 absorbance. Besides, in test [3], the “Fe^3+-TPTZ Reducing λ593” value turned out to be 2.037 ± 0.027 absorbance. Besides, in [4], the “DPPH^• Scavenging IC50” value is 13.326 µg/mL and 13.32 µg/mL. In addition, the “ABTS^•+ Scavenging IC50” value in test [5] was 4.95 µg/mL.
Turning to `Cc1c(C)c2c(c(C)c1O)CCC(C)(C(=O)O)O2` (stereo not shown) [Trolox, trolox, reference compound], the “Fe^3+ Reducing λ700” value in test [1] was 1.570 ± 0.016 absorbance. Also, the “Cu^2+ Reducing λ450” value in test [2] is 1.174 ± 0.027 absorbance. Moreover, in test [3], the “Fe^3+-TPTZ Reducing λ593” value is 2.051 ± 0.028 absorbance. In test [4], the “DPPH^• Scavenging IC50” value was 12.157 µg/mL and 12.15 µg/mL. For the same molecule, the “ABTS^•+ Scavenging IC50” value in test [5] was 4.846 µg/mL and 4.84 µg/mL.
Regarding `COc1ccc(O)c(C(C)(C)C)c1` [BHA, butylated hydroxyanisole, reference compound], the “Fe^3+ Reducing λ700” value in test [1] came out at 2.448 ± 0.021 absorbance. In addition, the “Cu^2+ Reducing λ450” value in test [2] came out at 2.268 ± 0.011 absorbance. In addition, the “Fe^3+-TPTZ Reducing λ593” value in [3] stood at 2.156 ± 0.005 absorbance. For the same molecule, in test [4], the “DPPH^• Scavenging IC50” value is 11.55 µg/mL. Moreover, the “ABTS^•+ Scavenging IC50” value in [5] turned out to be 4.47 µg/mL.
